# Experimental data taken from patent US11691970B2, “Pyrazolopyridinone compounds” (Janssen Pharmaceutica NV, priority 2017, dated 2023).
# pIC50: −log10 of the molar value. Read-outs that look alike come from different tables or passages of the source.
# Key:
# [1] = molecular target: T1, human FGFR3 V555L enzyme (cytoplasmic domain carrying V555L mutation) (Homo sapiens, UniProt P22607, V555L); assay: FGFR3 V555L mobility shift assay (enzymatic assay); format: biochemical; conditions: 40 μM ATP, 50 minutes at 30° C, Caliper EZ reader II
# T1 construct: human FGFR3 V555L enzyme (cytoplasmic domain carrying V555L mutation, from Carna Biosciences); purchased Carna Biosciences
# T1 sequence (P22607 397-806 V555L limits assumed): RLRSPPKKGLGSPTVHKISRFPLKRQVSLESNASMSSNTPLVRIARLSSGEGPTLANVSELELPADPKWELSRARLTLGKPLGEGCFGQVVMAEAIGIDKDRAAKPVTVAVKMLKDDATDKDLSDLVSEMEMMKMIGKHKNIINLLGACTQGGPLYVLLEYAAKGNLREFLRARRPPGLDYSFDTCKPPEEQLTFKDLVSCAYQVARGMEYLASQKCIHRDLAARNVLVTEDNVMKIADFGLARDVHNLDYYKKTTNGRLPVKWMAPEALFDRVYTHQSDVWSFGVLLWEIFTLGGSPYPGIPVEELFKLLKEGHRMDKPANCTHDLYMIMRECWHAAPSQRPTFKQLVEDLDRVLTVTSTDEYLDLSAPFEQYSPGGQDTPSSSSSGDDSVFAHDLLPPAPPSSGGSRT
# Source text: FGFR3 V555L Mobility Shift Assay (Enzymatic Assay)
# [2] = molecular target: T2, human FGFR3 wild type enzyme (cytoplasmic domain) (Homo sapiens, UniProt P22607); assay: FGFR3 wild type mobility shift assay (enzymatic assay); format: biochemical; conditions: 75 μM ATP, 50 minutes at 30° C, Caliper EZ reader II
# T2 construct: human FGFR3 wild type enzyme (cytoplasmic domain, from Carna Biosciences); purchased Carna Biosciences
# T2 sequence (P22607 397-806 limits assumed): as the sequence (P22607 397-806 V555L limits assumed) above, with L159V counted along it
# Source text: FGFR3 Wild Type Mobility Shift Assay (Enzymatic Assay)
# [3] = test system: NIH/3T3 cells transfected with control vector; assay: NIH/3T3 mock cell proliferation assay (counter assay, CellTiter Glo); format: cell-based; conditions: 72-hr incubation, top concentration 30 μM, counter assay for general toxicity, read-out: NIH/3T3 MOCK CTG (IC50)
# Procedure: NIH/3T3 Mock Cell Proliferation Assay
# In day 1, 90 μL of cell suspension (NIH/3T3 cells transfected with the same control vector as in the above two proliferation assays) (total 30,000 cells per well in growth medium (DMEM containing 1% Glutamax, 10% FBS and 1% Pen/Strep)) was seeded in a 96-well plate and then incubated overnight at 37° C. and 5% CO2. In day 2, 10 μL of growth medium containing 10-fold stock solution of testing compound was added into cell cultures (9 dose points with 3× serial dilution, starting with 30 μM, 0.3% DMSO final). After 72-hr incubation at 37° C. and 5% CO2, in day 5 a volume of 50 μL CellTiter Glo (CTG) reagent was added into cell-containing 96-well plate and the plate was incubated at room temperature for 10 minutes before RLUs (relative light unit) were measured on a microplate reader with luminescence detection module.
# [4] = molecular target: T3, NIH/3T3 cells overexpressing FGFR3 WT-TACC3 fusion protein (Homo sapiens, UniProt P22607); assay: NIH/3T3 FGFR3 WT-TACC3 cell proliferation assay (CellTiter Glo); format: cell-based; conditions: 72-hr incubation, top concentration 10 μM, read-out: NIH/3T3 FGFR3 WT-TACC3 CTG (IC50)
# T3 construct: NIH/3T3 FGFR3 WT-TACC3 CTG (IC50); other: 72-hr incubation, CellTiter Glo, top concentration 10 μM; fused on or other part: Q9Y6A5 (Transforming acidic coiled-coil-containing protein 3)
# T3 sequence (P22607 whole entry, change not shown, the tested form may be a part): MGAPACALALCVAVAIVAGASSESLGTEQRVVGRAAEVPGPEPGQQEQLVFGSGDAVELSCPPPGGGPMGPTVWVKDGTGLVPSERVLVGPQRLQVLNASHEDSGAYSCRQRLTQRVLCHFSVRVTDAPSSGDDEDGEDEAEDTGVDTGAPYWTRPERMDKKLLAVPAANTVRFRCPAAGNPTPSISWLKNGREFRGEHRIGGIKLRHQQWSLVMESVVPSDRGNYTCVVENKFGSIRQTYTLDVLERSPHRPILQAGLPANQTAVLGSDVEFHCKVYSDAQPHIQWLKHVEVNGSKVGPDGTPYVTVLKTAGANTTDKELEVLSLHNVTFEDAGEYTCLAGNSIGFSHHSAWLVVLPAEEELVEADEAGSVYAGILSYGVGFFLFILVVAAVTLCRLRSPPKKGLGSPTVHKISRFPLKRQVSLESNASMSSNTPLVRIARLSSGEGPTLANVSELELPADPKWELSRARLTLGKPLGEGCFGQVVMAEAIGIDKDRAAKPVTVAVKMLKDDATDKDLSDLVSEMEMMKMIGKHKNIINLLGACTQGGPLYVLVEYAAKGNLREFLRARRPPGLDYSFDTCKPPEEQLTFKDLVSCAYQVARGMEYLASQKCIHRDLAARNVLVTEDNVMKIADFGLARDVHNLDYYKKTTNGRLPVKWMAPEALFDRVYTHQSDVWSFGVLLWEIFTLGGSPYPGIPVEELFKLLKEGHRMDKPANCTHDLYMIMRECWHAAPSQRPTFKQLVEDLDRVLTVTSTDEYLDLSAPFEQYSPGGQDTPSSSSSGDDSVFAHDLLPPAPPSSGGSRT
# Procedure: NIH/3T3 FGFR3 WT-TACC3 Cell Proliferation Assay
# In day 1, 90 μL of cell suspension (NIH/3T3 cells overexpressing FGFR3 WT-TACC3 fusion protein) (total 30,000 cells per well in growth medium (DMEM containing 1% Glutamax, 10% FBS and 1% Pen/Strep)) was seeded in a 96-well plate and then incubated overnight at 37° C. and 5% CO2. […] After 72-hr incubation at 37° C. and 5% CO2, in day 5 a volume of 50 μL CellTiter Glo (CTG) reagent was added into cell-containing 96-well plate and the plate was incubated at room temperature for 10 minutes before RLUs (relative light unit) were measured on a microplate reader with luminescence detection module.
# [5] = test system: NIH/3T3 cells overexpressing FGFR3 WT-TACC3 fusion protein; assay: NIH/3T3 FGFR3 WT-TACC3 cellular phospho-ERK assay (in vitro PD assay); format: cell-based; conditions: Mus musculus, NIH3T3; 1-hr incubation, AlphaLISA SureFire Ultra p-ERK1/2 (Thr202/Tyr204); read-out: NIH/3T3 FGFR3 WT-TACC3 pERK (IC50)
# Procedure: NIH/3T3 FGFR3 WT-TACC3 Cellular Phospho-ERK Assay (In Vitro PD Assay)
# 50 μL of cell suspension (NIH/3T3 cells overexpressing FGFR3 WT-TACC3 fusion protein) (total 10,000 cells per well in growth medium (DMEM containing 1% Glutamax, 10% FBS and 1% Pen/Strep)) was seeded in a 384-well plate. […] After 1-hr incubation at 37° C. and 5% CO2, the medium was depleted and AlphaLISA SureFire Ultra p-ERK1/2 (Thr202/Tyr204) Assay Kit (from PerkinElmer) was applied for phospho-ERK level detection according to the kit instructions.
pIC50 [1],pIC50 [2],GI50 [4] [nM],SMILES,"pIC50 ([3]; Mus musculus, NIH3T3, 72 h)",pIC50 [3],pIC50 [5]
7.29,7.63,5.57,"CC(Nc1c(-c2nc3ccc(N4CCOCC4)cc3[nH]2)c(=O)[nH]c2cn(C)nc12)c1cscn1 (single isomer, unassigned) [Compound 41, (S*)-2-methyl-6-(6-morpholino-1H-benzo[d]imidazol-2-yl)-7-((1-(thiazol-4-yl)ethyl)-amino)-2H-pyrazolo[4,3-b]pyridin-5(4H)-one]",6.37,,
,7.72,8.84,"CC(Nc1c(-c2nc3ccc(N4CCOCC4)cc3[nH]2)c(=O)[nH]c2cn(C)nc12)c1cscn1 (single isomer, unassigned) [Compound 42, (R*)-2-methyl-6-(6-morpholino-1H-benzo[d]imidazol-2-yl)-7-((1-(thiazol-4-yl)ethyl)-amino)-2H-pyrazolo[4,3-b]pyridin-5(4H)-one]",,6.52,8.56
,9.40,10.5,"C[C@H](Nc1c(-c2nc3ccc(N4CCO[C@@H](C(F)(F)F)C4)cc3[nH]2)c(=O)[nH]c2cn(C)nc12)c1ncccn1 (relative stereo) [Compound 7, 2-Methyl-7-(((S*)-1-(pyrimidin-2-yl)ethyl)amino)-6-(6-((R*)-2-(trifluoromethyl)-morpholino)-1H-benzo[d]imidazol-2-yl)-2H-pyrazolo[4,3-b]pyridin-5(4H)-one]",5.97,,
